# Measurements published in article PMC12446476 (Nature Communications, 2025).
# “And” between values parts separate entries of the source, which are not always exact repeats. Equal values may be shown once.
# System: N. gonorrhoeae
# Assay: N. gonorrhoeae murine vaginal infection model, efficacy
# Assay type: in vivo, mouse
# Description: The N. gonorrhoeae female mouse vaginal model[45] was performed in accordance with the Guide for Care and Use of Laboratory Animals[75]. Animal rooms were maintained at a temperature range of 20–24 °C and humidity between 30% and 70%, with 12 h light/dark cycles. Ovariectomized BALB/c female mice (5–6 weeks, BioLASCO Taiwan Co., Ltd.) were treated with estradiol (0.23 mg/mouse) two days before infection and on the day of infection. Ovariectomized mice were used to avoid staging mice before treating them with estradiol. Beginning two days prior to infection and maintained until the end of the study, animals were treated twice daily with streptomycin (1.2 mg/mouse) and vancomycin (0.6 mg/mouse) each via intraperitoneal (IP) injection and received trimethoprim sulfate in the drinking water (0.4 mg/mL) to control vaginal microflora. Animals were anesthetised with pentobarbital (80 mg/kg), the vagina was rinsed with 50 mM HEPES (pH 7.4), and then inoculated with N. gonorrhoeae in pre-warmed PBS (0.02 mL/mouse containing ~1 × 10^5 CFU).
# Control groups received either a single IP injection of ceftriaxone or 5% dextrose (vehicle) twice daily. Animals were sacrificed via CO2 asphyxiation at either 2 h (baseline), 26 and/or 50 h post-infection. Vaginal lavage was performed twice with 200 µL GC broth containing 0.05% saponin to recover bacteria. Bacterial burden in the lavage fluids was determined by performing 10-fold serial dilutions and plating on chocolate agar plates. Four strains were assessed using the model; ATCC 700825 is naturally streptomycin-resistant, whereas AR Bank0179-15, AR Bank0181-17 and WHO X-07 are derivatives of AR Bank0179, AR Bank0181 and WHO X, respectively, that were engineered for streptomycin resistance for use in the model.
# [1] = Data 4, N. gonorrhoeae WHO X-07, ovariectomized BALB/c, 5 mg/kg IP, QD, 24h, individual animals, 5 mg/kg
# [2] = Data 4, N. gonorrhoeae WHO X-07, ovariectomized BALB/c, 333.33 mg/kg IP, TID, 24h, individual animals
# [3] = Data 4, N. gonorrhoeae WHO X-07, ovariectomized BALB/c, 333.33 mg/kg IP, TID, 48h, individual animals, 333.33 mg/kg
# [4] = N. gonorrhoeae AR Bank0179-15, vaginal lavage, individual mice, Ceftriaxone 0.5 mg/kg IP, QD, 24h
# [5] = N. gonorrhoeae AR Bank0179-15, vaginal lavage, individual mice, Ceftriaxone 5 mg/kg IP, QD, 24h
# [6] = N. gonorrhoeae AR Bank0179-15, vaginal lavage, individual mice, Ceftriaxone 5 mg/kg IP, QD, 48h
# [7] = N. gonorrhoeae AR Bank0181-17, vaginal lavage, individual mice, Ceftriaxone 0.5 mg/kg IP, QD, 24h
# [8] = N. gonorrhoeae AR Bank0181-17, vaginal lavage, individual mice, Ceftriaxone 5 mg/kg IP, QD, 24h
# [9] = N. gonorrhoeae AR Bank0181-17, vaginal lavage, individual mice, Ceftriaxone 5 mg/kg IP, QD, 48h
# [10] = N. gonorrhoeae ATCC 700825, vaginal lavage, individual mice, Ceftriaxone 1 mg/kg IP, QD, 24h
# [11] = N. gonorrhoeae ATCC 700825, vaginal lavage, individual mice, Ceftriaxone 5 mg/kg IP, QD, 24h
# [12] = N. gonorrhoeae ATCC 700825, vaginal lavage, individual mice, Ceftriaxone 5 mg/kg IP, QD, 48h
smiles,measurement,setting,value
"CO/N=C(\C(=O)N[C@@H]1C(=O)N2C(C(=O)O)=C(CSc3nc(=O)c(=O)[nH]n3C)CS[C@H]12)c1csc(N)n1 [Ceftriaxone, reference compound]","Mean Diff. 0h vs. treatment, log10 CFU","AR Bank0179-15, 0.5 µg/mL ceftriaxone, 24h",3.018
same,"Mean Diff. 0h vs. treatment, log10 CFU","AR Bank0179-15, 5 µg/mL ceftriaxone, 24h",3.186
same,"Mean Diff. 0h vs. treatment, log10 CFU","AR Bank0179-15, 5 µg/mL ceftriaxone, 48h",3.09
same,"Mean Diff. 0h vs. treatment, log10 CFU","AR Bank0181-17, 0.5 µg/mL ceftriaxone, 24h",0.924
same,"Mean Diff. 0h vs. treatment, log10 CFU","AR Bank0181-17, 5 µg/mL ceftriaxone, 24h",3.56
same,"Mean Diff. 0h vs. treatment, log10 CFU","AR Bank0181-17, 5 µg/mL ceftriaxone, 48h",3.56
same,efficacy against ceftriaxone-susceptible strains,"ATCC 700825, AR Bank0179-15, AR Bank0181-17",effective
same,"Mean Diff. 0h vs. treatment, log10 CFU","ATCC 700825, 1 µg/mL ceftriaxone, 24h",2.882
same,"Mean Diff. 0h vs. treatment, log10 CFU","ATCC 700825, 5 µg/mL ceftriaxone, 24h",3.022
same,"Mean Diff. 0h vs. treatment, log10 CFU","ATCC 700825, 5 µg/mL ceftriaxone, 48h",3.082
same,CFU/mL lavage fluid,[1],1450000 CFU/mL lavage fluid and 400000 CFU/mL lavage fluid and 1290000 CFU/mL lavage fluid and 480000 CFU/mL lavage fluid and 620000 CFU/mL lavage fluid
same,Log10(CFU/mL lavage fluid),[1],6.16 Log10(CFU/mL lavage fluid) and 5.60 Log10(CFU/mL lavage fluid) and 6.11 Log10(CFU/mL lavage fluid) and 5.68 Log10(CFU/mL lavage fluid) and 5.79 Log10(CFU/mL lavage fluid)
same,CFU/mL lavage fluid,[2],<5.00E+00 CFU/mL lavage fluid
same,Log10(CFU/mL lavage fluid),[2],<0.70 Log10(CFU/mL lavage fluid)
same,CFU/mL lavage fluid,[3],35 CFU/mL lavage fluid and <5.00E+00 CFU/mL lavage fluid
same,Log10(CFU/mL lavage fluid),[3],1.54 Log10(CFU/mL lavage fluid) and <0.70 Log10(CFU/mL lavage fluid)
same,CFU/mL lavage fluid,[4],5 CFU/mL and <5 CFU/mL and 35 CFU/mL
same,Log10(CFU/mL lavage fluid),[4],0.7 Log10(CFU/mL lavage fluid) and <0.70 Log10(CFU/mL lavage fluid) and 1.54 Log10(CFU/mL lavage fluid)
same,CFU/mL lavage fluid,[5],<5 CFU/mL
same,Log10(CFU/mL lavage fluid),[5],<0.70 Log10(CFU/mL lavage fluid)
same,CFU/mL lavage fluid,[6],5 CFU/mL and <5 CFU/mL and 15 CFU/mL
same,Log10(CFU/mL lavage fluid),[6],0.7 Log10(CFU/mL lavage fluid) and <0.70 Log10(CFU/mL lavage fluid) and 1.18 Log10(CFU/mL lavage fluid)
same,CFU/mL lavage fluid,[7],255 CFU/mL and 195 CFU/mL and 3900 CFU/mL and 37000 CFU/mL and 6600 CFU/mL
same,Log10(CFU/mL lavage fluid),[7],2.41 Log10(CFU/mL lavage fluid) and 2.29 Log10(CFU/mL lavage fluid) and 3.59 Log10(CFU/mL lavage fluid) and 4.57 Log10(CFU/mL lavage fluid) and 3.82 Log10(CFU/mL lavage fluid)
same,CFU/mL lavage fluid,[8],<5 CFU/mL
same,Log10(CFU/mL lavage fluid),[8],<0.70 Log10(CFU/mL lavage fluid)
same,CFU/mL lavage fluid,[9],<5 CFU/mL
same,Log10(CFU/mL lavage fluid),[9],<0.70 Log10(CFU/mL lavage fluid)
same,CFU/mL lavage fluid,[10],50 CFU/mL and 5 CFU/mL and <5 CFU/mL
same,Log10(CFU/mL lavage fluid),[10],1.7 Log10(CFU/mL lavage fluid) and 0.7 Log10(CFU/mL lavage fluid) and <0.70 Log10(CFU/mL lavage fluid)
same,CFU/mL lavage fluid,[11],<5 CFU/mL and 10 CFU/mL
same,Log10(CFU/mL lavage fluid),[11],<0.70 Log10(CFU/mL lavage fluid) and 1 Log10(CFU/mL lavage fluid)
same,CFU/mL lavage fluid,[12],<5 CFU/mL
same,Log10(CFU/mL lavage fluid),[12],<0.70 Log10(CFU/mL lavage fluid)
same,"Mean Diff. 0h vs. treatment, log10 CFU","WHO X-07, 5 µg/mL ceftriaxone, 24h",-1.846
same,"Mean Diff. 0h vs. treatment, log10 CFU","WHO X-07, 1000 µg/mL ceftriaxone, 24h",3.322
same,"Mean Diff. 0h vs. treatment, log10 CFU","WHO X-07, 1000 µg/mL ceftriaxone, 48h",3.154
same,efficacy against ceftriaxone-resistant strain WHO X-07,at doses equivalent to those effective against susceptible strains,ineffective
same,increase in log10CFU/mL at 24 h,dose with simulated fT > MIC of 2 h,1.9 log10CFU/mL
same,reduction in log10CFU/mL at 24 h,doses with simulated fT > MIC of 12 to 18 h,2.0 log10CFU/mL
same,reduction in log10CFU/mL at 24 h,doses with simulated fT > MIC of >24 h,3.3 log10CFU/mL
same,reduction in log10CFU/mL at 24 h,doses with simulated fT > MIC of ≥22 to 24 h,2.9 log10CFU/mL
Cc1c(CN(C)C(=O)/C=C/c2cnc3c(c2)N[C@H](C)[C@H](O)C(=O)N3)oc2ccccc12 [Debio 1453],"Mean Diff. 0h vs. treatment, log10 CFU","AR Bank0179-15, 20 µg/mL Debio 1453, 24h",-1.082
same,"Mean Diff. 0h vs. treatment, log10 CFU","AR Bank0179-15, 20 µg/mL Debio 1453, 48h",-1.16
same,"Mean Diff. 0h vs. treatment, log10 CFU","AR Bank0179-15, 40 µg/mL Debio 1453, 24h",-0.242
same,"Mean Diff. 0h vs. treatment, log10 CFU","AR Bank0179-15, 40 µg/mL Debio 1453, 48h",1.58
same,"Mean Diff. 0h vs. treatment, log10 CFU","AR Bank0179-15, 60 µg/mL Debio 1453, 24h",1.644
same,"Mean Diff. 0h vs. treatment, log10 CFU","AR Bank0179-15, 60 µg/mL Debio 1453, 48h",2.864
same,"Mean Diff. 0h vs. treatment, log10 CFU","AR Bank0179-15, 80 µg/mL Debio 1453, 24h",1.958
same,"Mean Diff. 0h vs. treatment, log10 CFU","AR Bank0179-15, 80 µg/mL Debio 1453, 48h",2.964
same,"Mean Diff. 0h vs. treatment, log10 CFU","AR Bank0179-15, 24h",3.186
same,"Mean Diff. 0h vs. treatment, log10 CFU","AR Bank0179-15, 48h",3.186
same,"Mean Diff. 0h vs. treatment, log10 CFU","AR Bank0181-17, 40 µg/mL Debio 1453, 24h",-1.694
same,"Mean Diff. 0h vs. treatment, log10 CFU","AR Bank0181-17, 40 µg/mL Debio 1453, 48h",-0.796
same,"Mean Diff. 0h vs. treatment, log10 CFU","AR Bank0181-17, 60 µg/mL Debio 1453, 24h",-1.094
same,"Mean Diff. 0h vs. treatment, log10 CFU","AR Bank0181-17, 60 µg/mL Debio 1453, 48h",-0.998
same,"Mean Diff. 0h vs. treatment, log10 CFU","AR Bank0181-17, 80 µg/mL Debio 1453, 24h",-0.986
same,"Mean Diff. 0h vs. treatment, log10 CFU","AR Bank0181-17, 80 µg/mL Debio 1453, 48h",-0.852
same,"Mean Diff. 0h vs. treatment, log10 CFU","AR Bank0181-17, 320 µg/mL Debio 1453, 24h",3.42
same,"Mean Diff. 0h vs. treatment, log10 CFU","AR Bank0181-17, 320 µg/mL Debio 1453, 48h",3.56
same,"Mean Diff. 0h vs. treatment, log10 CFU","AR Bank0181-17, 24h",0.842
same,"Mean Diff. 0h vs. treatment, log10 CFU","AR Bank0181-17, 48h",1.134
same,"Mean Diff. 0h vs. treatment, log10 CFU","ATCC 700825, 20 µg/mL Debio 1453, 24h",-0.874
same,"Mean Diff. 0h vs. treatment, log10 CFU","ATCC 700825, 20 µg/mL Debio 1453, 48h",-1.386
same,"Mean Diff. 0h vs. treatment, log10 CFU","ATCC 700825, 40 µg/mL Debio 1453, 24h",-0.322
same,"Mean Diff. 0h vs. treatment, log10 CFU","ATCC 700825, 40 µg/mL Debio 1453, 48h",-0.946
same,"Mean Diff. 0h vs. treatment, log10 CFU","ATCC 700825, 60 µg/mL Debio 1453, 24h",1.296
same,"Mean Diff. 0h vs. treatment, log10 CFU","ATCC 700825, 60 µg/mL Debio 1453, 48h",2.468
same,"Mean Diff. 0h vs. treatment, log10 CFU","ATCC 700825, 80 µg/mL Debio 1453, 24h",2.796
same,"Mean Diff. 0h vs. treatment, log10 CFU","ATCC 700825, 80 µg/mL Debio 1453, 48h",3.082
same,"Mean Diff. 0h vs. treatment, log10 CFU","ATCC 700825, 24h",2.942
same,"Mean Diff. 0h vs. treatment, log10 CFU","ATCC 700825, 48h",3.082
same,"Mean Diff. 0h vs. treatment, log10 CFU","WHO X-07, 40 µg/mL Debio 1453, 24h",-1.944
same,"Mean Diff. 0h vs. treatment, log10 CFU","WHO X-07, 40 µg/mL Debio 1453, 48h",-2.102
same,"Mean Diff. 0h vs. treatment, log10 CFU","WHO X-07, 60 µg/mL Debio 1453, 24h",-1.81
same,"Mean Diff. 0h vs. treatment, log10 CFU","WHO X-07, 60 µg/mL Debio 1453, 48h",-1.666
same,"Mean Diff. 0h vs. treatment, log10 CFU","WHO X-07, 80 µg/mL Debio 1453, 24h",-1.492
same,"Mean Diff. 0h vs. treatment, log10 CFU","WHO X-07, 80 µg/mL Debio 1453, 48h",-1.246
same,"Mean Diff. 0h vs. treatment, log10 CFU","WHO X-07, 320 µg/mL Debio 1453, 24h",3.01
same,"Mean Diff. 0h vs. treatment, log10 CFU","WHO X-07, 320 µg/mL Debio 1453, 48h",3.322
same,"Mean Diff. 0h vs. treatment, log10 CFU","WHO X-07, 24h",2.532
same,"Mean Diff. 0h vs. treatment, log10 CFU","WHO X-07, 48h",3.114
same,reduction compared to the start of treatment (0 h),"each of four strains, dosed as Debio 1453 P, limit of detection by 48 h for at least one dose level",~ 3 log10CFU/mL
